Patent US20230165183A1, “METHODS AND COMPOSITIONS FOR IMPROVED SEED GROWTH” (Cyprus University of Technology, priority 2021, published 2023)
Read-outs that look alike come from different tables or passages of the source.

Experiments:
Pot Marigold = conditions: Salt; cited from earlier work
Chickpea = conditions: Drought; cited from earlier work
Milk Thistle = conditions: Salt; cited from earlier work
Maize [1] = conditions: Salt; cited from earlier work
Pigeon Pea = conditions: Calcium; cited from earlier work
Corn = conditions: Salt; cited from earlier work
Wheat [2] = conditions: Salt; cited from earlier work
Sorghum = conditions: Drought; cited from earlier work
Wheat [3] = conditions: cited from earlier work
Maize [4] = conditions: cited from earlier work
Rice = conditions: cited from earlier work
Safflower = conditions: Drought; cited from earlier work
tomato seeds = experiment: Germination percentage of primed/coated tomato seeds five days after sowing; format: in vivo; conditions: tomato seeds primed with melatonin (Mel 1=50 μM, Mel 2=100 μM), 5 DAS, vs unprimed seeds; p<0.05
Experimental: FIG. 4 depicts germination percentage five days after sowing (5 DAS) in tomato seeds coated (pre-treated) with melatonin concentrations (Mel 1=50 μM, Mel 2=100 μM) in comparison with unprimed seeds (non-treated) and hydrogel coated seeds (Hydro).
Tomato seeds were primed with melatonin at the following concentrations: 5 μM, 10 μM, 15 μM, 25 μM, 50 μM, 100 μM, 200 μM, and 300 μM. Priming was performed by soaking the seeds in the desired melatonin concentration, then vacuum-drying the seeds.
FIG. 4 depicts germination percentage five days after sowing (5 DAS) in tomato seeds coated pre-treated with melatonin concentrations (Mel 1=50 μM, Mel 2=100 μM) in comparison with unprimed seeds (Non-treated) and hydrogel coated seeds (Hydro).

Molecule: gibberellin [GA]
- Plant Response to GA (Pot Marigold): Increased tolerance
- Plant Response to GA (Chickpea): Increased relative water content
- Plant Response to GA (Milk Thistle): Alleviated salt stress
- Plant Response to GA (Maize [1]): Alleviated salt stress
- Plant Response to GA (Pigeon Pea): Increased germination
- Plant Response to GA (Corn): Increased tissue water content
- Plant Response to GA (Wheat [2]): Increased tolerance
- Plant Response to GA (Sorghum): Increased CAT and APX activities

Molecule: O=C(O)c1ccccc1O [SA, salicyclic acid]
- Plant Response to SA (Wheat [3]; Drought): Balanced nutrient uptake
- Plant Response to SA (Wheat [3]; Osmotic): Increased tolerance
- Plant Response to SA (Wheat [3]; Salinity): Decreased electrolyte leakage
- Plant Response to SA (Maize [4]; Chilling): Enhanced antioxidant activity
- Plant Response to SA (Maize [4]; Lead): Increased nitric oxide content
- Plant Response to SA (Rice; Chilling): Enhanced antioxidant activity
- Plant Response to SA (Rice; Chromium): Increased chlorophyll content
- Plant Response to SA (Safflower): Enhanced antioxidant activity

Molecule: COc1ccc2[nH]cc(CCNC(C)=O)c2c1 [melatonin]
- germination percentage (tomato seeds): significantly increased germination percentage
